Results as given in patent publication US11912723B2, “KRAS modulators and uses thereof” (Quanta Therapeutics, Inc., priority 2022, dated 2024).

Legend:
[1] = target: T1, GST-tagged KRAS G12D (2-169) (Homo sapiens, UniProt P01116, G12D); test: Nucleotide exchange assay (NEA), HTRF of SOS-mediated GTP-DY-647P1 binding; assay type: biochemical; conditions: 5 nM GST-KRAS G12D, 20 nM SOScat, 150 nM GTP; compound 1 h at RT
T1 construct: GST-tagged KRAS^G12D (2-169, Reaction Biology, MSC-11-539); purchased Reaction Biology MSC-11-539 (KRAS G12D); MSC-11-502 (SOS1cat)
T1 sequence (P01116 2-169 isoform P01116-2 G12D): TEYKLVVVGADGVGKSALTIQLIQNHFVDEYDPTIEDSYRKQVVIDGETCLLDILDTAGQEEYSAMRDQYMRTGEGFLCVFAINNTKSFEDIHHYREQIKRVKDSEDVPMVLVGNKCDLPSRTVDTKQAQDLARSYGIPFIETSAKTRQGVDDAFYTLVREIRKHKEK
Excerpt: This activity is tightly regulated by GTPase activating proteins (GAPs) and guanine nucleotide exchange factors (GEFs). GEFs, such as SOS1/2, activate Ras proteins by exchanging GDP for GTP, thus returning Ras to its active conformation (Simanshu, Nissley, & McCormick, 2017). […] Homogenous time resolved fluorescence (HTRF) was used to detect SOS-mediated binding of a fluorescent GTP analog, GTP-DY-647P1 (Jena Biosciences NU-820-647P1) to GST-tagged KRAS^G12D (2-169, Reaction Biology, MSC-11-539).
GST-tagged KRAS^G12D (2-169) and anti-GST MAb Tb Cryptate Gold (CisBio 61GSTTLB) were diluted into assay buffer (20 mM HEPES, pH 7.3, 150 mM NaCl, 5 mM MgCl2, 0.05% BSA 0.0025% NP40, 1 mM DTT) to prepare a 2.5× donor solution. 5× compound was added to the protein mixture and incubated for 1 h at RT. 2.5× acceptor solution containing SOS1cat (564-1049, Reaction Biology MSC-11-502) and GTP-DY-647P1 were then added to the donor KRAS mixture such that the final concentration of the reaction contained 5 nM GST-tagged KRAS^G12D (2-169), 20 nM SOScat, and 150 nM GTP. The reaction was monitored using at RT with the Envision multimode plate reader (Ex/Em 337/665, […]) up to 90 minutes at 5 minute intervals. Data was blanked to reactions without SOS1 and % inhibition was calculated such that DMSO only=0% and blank=100%. Curve fitting was done using a 4 parameter fit. NEA KRAS G12D ID50 (uM) values of selected compounds are depicted in Table 2 with compounds having a value<0.01 uM as ++++; >0.01 uM to 0.1 uM as +++; >0.1 uM to 1 uM as ++; >1 uM to 20 uM as +; and >20 uM as NA.

KRAS G12D/RAF1 = target: T2, KRAS G12D/RAF1 (Homo sapiens, UniProt P01116, G12D); test: Protein-protein interaction (PPI) HTRF assay KRAS G12D/RAF1; assay type: binding; conditions: KRAS G12D/RAF1, GppNHp-loaded KRAS; 30 minutes pre-incubation
T2 construct: KRAS (1-169) proteins were expressed in E. coli at 18° C; His6-MBP (N, cleaved yes); made in house; host or cells: E. coli
T2 sequence (P01116 1-169 isoform P01116-2 G12D): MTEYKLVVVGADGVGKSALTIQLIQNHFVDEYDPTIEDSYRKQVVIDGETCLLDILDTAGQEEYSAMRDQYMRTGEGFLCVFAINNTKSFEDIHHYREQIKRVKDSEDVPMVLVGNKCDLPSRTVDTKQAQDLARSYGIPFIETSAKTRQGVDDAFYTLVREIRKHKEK
Description: Biotinylated KRAS wt and KRAS G12DNV proteins were expressed and purified in conditions similar to those previously reported (Tran, et al., 2021) (Zhang, et al., 2020). Briefly, KRAS (1-169) proteins were expressed in E. coli at 18° C. with an upstream TEV cleavage site (ENLFYQS) followed an Avi tag sequence ([…]). KIRAS expression constructs contained both a His6 and maltose-binding protein (MBP) tags at the N-terminus for Ni-NTA column purification prior to overnight TEV cleavage and MBP column purification. The avi-tagged NRAS expression construct contained both a His6 tag and SUMO cleavage sige at the N-terminus for Ni-NTA column purification followed by His-ULP1 digestion overnight. All avi-tagged RAS proteins were dialyzed into buffer containing ATP, biotin, and BirA followed by purification over a second Ni-NTA column and then run over a size exclusion HiLoad™ 26/600 Superdex™ column in 20 mM HEPES, pH 7.5, 300 mM NaCl, 5 mM MgCl2, and 1 mM TCEP. Fractions containing the protein of interest were pooled, concentrated, and confirmed by intact mass spectrometry. To prepare ‘GTP’ loaded KRAS and NRAS, biotinylated KRAS or NRAS was nucleotide exchanged from GDP-bound protein to GppNHp-bound (Jena Biosciences, NU-401-50) protein in the presence of alkaline phosphatase and excess GppNHp as previously described and the resulting nucleotide content was confirmed by HPLC reverse phase analytical chromatography (Donohue, et al., 2019) (Tran, et al., 2021).
His-tagged RAF1 (52-131) was similarly expressed in E. coli at 18° C. overnight with an upstream TEV cleavage site. His-tagged RAF1 expression construct contained both a His6 and MBP tags at the N-terminus for Ni-NTA column purification followed by MBP-tagged TEV digestion overnight. RAF1 protein samples were further purified over a MBP column followed by a Ni-NTA column and a second MBP column. The fractions containing the protein of interest were pooled, concentrated, and further purified over a HiLoad™ 16/600 Superdex™ 75 pg size exclusion column into 20 mM HEPES, pH8.0, 200 mM NaCl, 5 mM TCEP.
When RAS proteins are in the active GTP-bound conformation, they bind the effector protein RAF1 at the N-terminus Ras-binding domain (RBD, residues 52-131) (Tran, et al., 2021). Homogenous time resolved fluorescence (HTRF) was used to monitor the interaction between wt or mutant KRAS and RAF1 or wt NRAS and RAFT. Compounds were assayed in the presence of KRAS G12D/V and RAF1 versus wt KRAS to assess activity against mutant and w.t. KRAS. Similarly, compounds were then assayed in the presence of w.t. NRAS and RAF1 to assess RAS isoform selectivity. In all assay formats, His-tagged RAF1 protein was incubated with the HTRF donor, anti-6His Tb Cryptate gold (Cisbio 61DB10RDF), and biotinylated RAS proteins were incubated with the HTRF acceptor, streptavidin-d2 (CisBio 610SADLA). The intensity of the fluorescence signal emitted is proportional to binding between the two proteins. The donor solution was prepared by mixing 16 nM His-tagged RAF1 in protein dilution buffer with 1:100 anti-6His Tb cryptate in PPI-Terbium detection buffer. 16 nM biotinylated RAS protein was diluted into protein dilution buffer (50 mM Tris-HCl pH 7.5, 150 mM NaCl, 0.1 mM MgCl2, 1 mM TCEP, 0.005% Tween20) and mixed with 1:2000 Streptavidin-d2 diluted in PPI-Terbium detection buffer (CisBio 61DB10RDF). 50× compound in DMSO was mixed with 16 nM KRAS-acceptor solution and incubated for 30 minutes at room temperature. After compound pre-incubation with KRAS, the RAF1 donor solution was added to the KRAS-acceptor solution and incubated for 1 hour at room temperature. The fluorescence signal emitted was monitored at 665 nm and 615 nm using an Envision multimode plate reader. The HTRF ratio (665/615) was calculated and normalized to 0% inhibition in the absence of compound and 100% inhibition in the presence of untagged RAF1 protein. […]

| SMILES | IC50 [1] [µM] | IC50 (KRAS G12D/RAF1) [µM] |
| --- | --- | --- |
| O=C1NC(=O)[C@@H]2CN(c3nc(OC[C@@]45CCCN4C[C@H](F)C5)nc4c3CO[C@@]3(CCc5c(Cl)cccc53)C4)C[C@H]12 [Compound 33, (3aR,6aS)-5-[(7S)-4′-chloro-2-[[(2R,8S)-2-fluoro-1,2,3,5,6,7-hexahydropyrrolizin-8-yl]methoxy]spiro[5,8-dihydropyrano[4,3-d]pyrimidine-7,1′-indane]-4-yl]-3a,4,6,6a-tetrahydropyrrolo[3,4-c]pyrrole-1,3-dione] | 0.1 to 1 | 10 to 100 |
| CC(C)NC(=O)c1cc2n(n1)CCCN(c1nc(OC[C@@]34CCCN3C[C@H](F)C4)nc3c1CO[C@@]1(CCc4c(Cl)cccc41)C3)C2 [Compound 35, 5-[(7S)-4′-chloro-2-[[(2R,8S)-2-fluoro-1,2,3,5,6,7-hexahydropyrrolizin-8-yl]methoxy]spiro[5,8-dihydropyrano[4,3-d]pyrimidine-7,1′-indane]-4-yl]-N-isopropyl-4,6,7,8-tetrahydropyrazolo[1,5-a][1,4]diazepine-2-carboxamide] | 0.01 to 0.1 | > 100 |
| CN(C)C(=O)c1nn2c(c1Cl)CN(c1nc(OC[C@@]34CCCN3C[C@H](F)C4)nc3c1CO[C@@]1(CCc4c(Cl)cccc41)C3)CCC2 [Compound 36, 3-chloro-5-[(7S)-4′-chloro-2-[[(2R,8S)-2-fluoro-1,2,3,5,6,7-hexahydropyrrolizin-8-yl]methoxy]spiro[5,8-dihydropyrano[4,3-d]pyrimidine-7,1′-indane]-4-yl]-N,N-dimethyl-4,6,7,8-tetrahydropyrazolo[1,5-a][1,4]diazepine-2-carboxamide] | < 0.01 | 10 to 100 |
| CN(O)C(=O)c1cc2n(n1)CCCN(c1nc(OC[C@@]34CCCN3C[C@H](F)C4)nc3c1CO[C@@]1(CCc4c(Cl)cccc41)C3)C2 [Compound 37, 5-[(7S)-4′-chloro-2-[[(2R,8S)-2-fluoro-1,2,3,5,6,7-hexahydropyrrolizin-8-yl]methoxy]spiro[5,8-dihydropyrano[4,3-d]pyrimidine-7,1′-indane]-4-yl]-N-hydroxy-N-methyl-4,6,7,8-tetrahydropyrazolo[1,5-a][1,4]diazepine-2-carboxamide] | < 0.01 | > 100 |
| O=C(c1cc2n(n1)CCCN(c1nc(OC[C@@]34CCCN3C[C@H](F)C4)nc3c1CO[C@@]1(CCc4c(Cl)cccc41)C3)C2)N1CCOCC1 [Compound 38, morpholino-[5-[(7S)-4′-chloro-2-[[(2R,8S)-2-fluoro-1,2,3,5,6,7-hexahydropyrrolizin-8-yl]methoxy]spiro[5,8-dihydropyrano[4,3-d]pyrimidine-7,1′-indane]-4-yl]-4,6,7,8-tetrahydropyrazolo[1,5-a][1,4]diazepin-2-yl]methanone; 2,2,2-trifluoroacetic acid] | < 0.01 | 10 to 100 |
| CN(C)C(=O)c1cc2n(n1)CCCN(c1nc(OC[C@@]34CCCN3C[C@H](F)C4)nc3c1COC1(CCCc4ccc(O)c(Cl)c41)C3)C2 (stereo partly drawn) [Compound 40, 5-[8′-chloro-7′-hydroxy-2-[[(2R,8S)-2-fluoro-1,2,3,5,6,7-hexahydropyrrolizin-8-yl]methoxy]spiro[5,8-dihydropyrano[4,3-d]pyrimidine-7,1′-tetralin]-4-yl]-N,N-dimethyl-4,6,7,8-tetrahydropyrazolo[1,5-a][1,4]diazepine-2-carboxamide] | 0.01 to 0.1 | > 100 |
| N=S1(=O)CCN(C(=O)c2nn3c(c2Cl)CN(c2nc(OC[C@@]45CCCN4C[C@H](F)C5)nc4c2CO[C@@]2(CCc5c(Cl)cccc52)C4)CCC3)CC1 [Compound 52, [3-chloro-5-[(7S)-4′-chloro-2-[[(2R,8S)-2-fluoro-1,2,3,5,6,7-hexahydropyrrolizin-8-yl]methoxy]spiro[5,8-dihydropyrano[4,3-d]pyrimidine-7,1′-indane]-4-yl]-4,6,7,8-tetrahydropyrazolo[1,5-a][1,4]diazepin-2-yl]-(1-imino-1-oxo-1,4-thiazinan-4-yl)methanone] | < 0.01 | 10 to 100 |
| CNCc1nn2c(c1Cl)CN(c1nc(OC[C@@]34CCCN3C[C@H](F)C4)nc3c1CO[C@@]1(CCc4c(Cl)cccc41)C3)CCC2 [Compound 59, 1-[3-chloro-5-[(7S)-4′-chloro-2-[[(2R,8S)-2-fluoro-1,2,3,5,6,7-hexahydropyrrolizin-8-yl]methoxy]spiro[5,8-dihydropyrano[4,3-d]pyrimidine-7,1′-indane]-4-yl]-4,6,7,8-tetrahydropyrazolo[1,5-a][1,4]diazepin-2-yl]-N-methyl-methanamine] | 0.01 to 0.1 | > 100 |
| CS(=O)(=O)c1cc2n(n1)CCCN(c1nc(OC[C@@]34CCCN3C[C@H](F)C4)nc3c1CO[C@@]1(CCc4c(Cl)cccc41)C3)C2 [Compound 62, (7S)-4′-chloro-2-[[(2R,8S)-2-fluoro-1,2,3,5,6,7-hexahydropyrrolizin-8-yl]methoxy]-4-(2-methylsulfonyl-4,6,7,8-tetrahydropyrazolo[1,5-a][1,4]diazepin-5-yl)spiro[5,8-dihydropyrano[4,3-d]pyrimidine-7,1′-indane]] | 0.01 to 0.1 | > 100 |
| CN1Cc2c(nc(OC[C@@]34CCCN3C[C@H](F)C4)nc2N2CCC[C@]3(C2)NC(=O)NC3=O)C[C@]12CCCc1ccccc12 [Compound 71, (5R)-9-[(7S)-2-[[(2R,8S)-2-fluoro-1,2,3,5,6,7-hexahydropyrrolizin-8-yl]methoxy]-6-methyl-spiro[5,8-dihydropyrido[4,3-d]pyrimidine-7,1′-tetralin]-4-yl]-1,3,9-triazaspiro[4.5]decane-2,4-dione] | 0.1 to 1 | > 100 |
